Measurements from patent publication US20190315823A1, “SMALL CATIONIC ANTI-BIOFILM AND IDR PEPTIDES” (priority 2013, published 2019).
Ends that are not written are not given here.

What was measured:
[1] = tested on: methicillin resistant Staphylococcus aureus (MRSA) biofilm; settings: approximate peptide concentration […] (around 3 μg/ml); compared to untreated samples
Summary of the method: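 Static biofilm assay: 1/100 dilutions of overnight cultures grown in BM2 medium (pH 7, glucose, Casamino Acids) or Luria Broth with peptide added at time zero. After 22–46 h, adherent biofilm was stained with crystal violet and read at 595 nm. Some peptides were also tested on K. pneumoniae under flow in a Bioflux system.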

[2] = tested on: human peripheral blood mononuclear cells (MCP-1); assay: SPOT-synthesized derivative screen: production of chemokine MCP-1; assay type: cell-based; settings: Table 12, No LPS, human PBMC, peptide at ~18-24 μM; for MCP1: background subtracted 139 (HH2 derivatives), 170 (1018 derivatives), 242 (1002 and hybrid peptides) pg/ml
Summary of the method: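 PBMC from heparinized healthy-donor venous blood, Ficoll-separated, cultured at 0.75 to 1×10^6 cells/ml, 37 °C, 5% CO2, under the treatment regimens. MCP-1 in cell-free supernatants measured by capture ELISA.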

[3] = tested on: LPS-stimulated human peripheral blood mononuclear cells (IL1-β); assay type: cell-based; settings: Table 12, cells stimulated with 10 ng/ml LPS; for IL1β Production: LPS alone 1313 (HH2 derivatives), 1927 (1018 derivatives), 2455 (1002 and hybrid peptides) pg/ml

| Substance | % Biofilm inhibition [1] [%] | Fold increase in MCP1 cf. untreated cells [2] | MCP1 [2] [pg/mL] | Fold change in IL1β relative to no peptide LPS stimulated cells [3] | IL1β Production [3] [pg/mL] |
| --- | --- | --- | --- | --- | --- |
| 1002-G7: single substituted 1002 peptide (VQRWLIGWRIRK-NH2) [Peptide 1002-G7] | 54 | 0.9 | -36.2 | 0.14 | 353 |
| 1002-V6: single substituted 1002 peptide (VQRWLVVWRIRK-NH2) [Peptide 1002-V6] | 71 | 1.5 | 113.5 | 0.05 | 127 |
| 1018-Q1: single substituted 1018 peptide (QRLIVAVRIWRR-NH2) [Peptide 1018-Q1] | 46 | 3.1 | 363 | 0.12 | 158 |
| 1018-W2: single substituted 1018 peptide (VWLIVAVRIWRR-NH2) [Peptide 1018-W2] | 68 | 1.5 | 83 | 0.73 | 962 |
| HH2-W5: single substituted HH2 peptide (VQLRWRVAVIRA-NH2) | 63 | 14 | 2198 | 0.77 | 1007 |
| 1018-A10: single substituted 1018 peptide (VRLIVAVRIARR-NH2) [Peptide 1018-A10] | 54 | 1.0 | 7 | 0.28 | 369 |
| 1018-Q12: single substituted 1018 peptide (VRLIVAVRIWRQ-NH2) [Peptide 1018-Q12] | 57 | 0.8 | -28 | 0.50 | 655 |
| 1002-I1: single substituted 1002 peptide (IQRWLIVWRIRK-NH2) [Peptide 1002-I1] | 64 | 17.7 | 4059.0 | 0.05 | 127 |
| 1018-A2: single substituted 1018 peptide (VALIVAVRIWRR-NH2) [Peptide 1018-A2] | 64 | 0.6 | -65 | 0.10 | 127 |
| HH2-K7: single substituted HH2 peptide (VQLRIRKAVIRA-NH2) | 7 | 1.7 | 117 | 1.36 | 1782 |
| HH2-K10: single substituted HH2 peptide (VQLRIRVAVKRA-NH2) | 68 | 5.7 | 797 | 1.43 | 1878 |
| 1018-I2: single substituted 1018 peptide (VILIVAVRIWRR-NH2) [Peptide 1018-I2] | 61 | 44 | 7342 | 0.42 | 557 |
| HH2-W1: single substituted HH2 peptide (WQLRIRVAVIRA-NH2) | 67 | 29 | 4725 | 0.66 | 866 |
| 1018-V3: single substituted 1018 peptide (VRVIVAVRIWRR-NH2) [Peptide 1018-V3] | 76 | 16 | 2550 | 0.22 | 295 |
| 1002-A10: single substituted 1002 peptide (VQRWLIVWRARK-NH2) [Peptide 1002-A10] | 45 | 2.0 | 245.4 | 0.05 | 127 |
| HH2-W8: single substituted HH2 peptide (VQLRIRVWVIRA-NH2) | 75 | 81 | 13556 | 0.42 | 553 |
| 1018-I10: single substituted 1018 peptide (VRLIVAVRIIRR-NH2) [Peptide 1018-I10] | 58 | 1.3 | 56 | 0.10 | 135 |
| 1018-G8: single substituted 1018 peptide (VRLIVAVGIWRR-NH2) [Peptide 1018-G8] | 54 | 1.3 | 57 | 0.10 | 127 |
| 1018-L6: single substituted 1018 peptide (VRLIVLVRIWRR-NH2) [Peptide 1018-L6] | 69 | 0.7 | -60 | 0.26 | 340 |
| 1018-I6: single substituted 1018 peptide (VRLIVIVRIWRR-NH2) [Peptide 1018-I6] | 65 | 1.6 | 110 | 0.44 | 582 |
| HH2-R8: single substituted HH2 peptide (VQLRIRVRVIRA-NH2) | 71 | 121 | 1890 | 0.79 | 1042 |
| 1018-W7: single substituted 1018 peptide (VRLIVAWRIWRR-NH2) [Peptide 1018-W7] | 55 | 0.8 | -28 | 0.37 | 483 |
| 1002-A6: single substituted 1002 peptide (VQRWLAVWRIRK-NH2) [Peptide 1002-A6] | 28 | 3.0 | 485.3 | 0.16 | 382 |
| HH2C-HH2N: derivative of HH2, 1002 and 1018 made by SPOT synthesis (VAVIRAVQLRIR-NH2) | 61 | 2.0 | 239.0 | 0.31 | 769 |
| HH2-W10: single substituted HH2 peptide (VQLRIRVAVWRA-NH2) | 48 | 15 | 2448 | 1.02 | 1344 |
| 1002-Q3: single substituted 1002 peptide (VQQWLIVWRIRK-NH2) [Peptide 1002-Q3] | 70 | 2.4 | 343.8 | 0.05 | 127 |
| HH2-Q12: single substituted HH2 peptide (VQLRIRVAVIRQ-NH2) | 72 | 13 | 2034 | 0.73 | 965 |
| 1002-G8: single substituted 1002 peptide (VQRWLIVGRIRK-NH2) [Peptide 1002-G8] | 42 | 0.9 | -36.2 | 0.28 | 692 |
| HH2-V4: single substituted HH2 peptide (VQLVIRVAVIRA-NH2) | 60 | 20 | 3216 | 0.67 | 877 |
| 1002-Q12: single substituted 1002 peptide (VQRWLIVWRIRQ-NH2) [Peptide 1002-Q12] | 65 | 6.1 | 1225.7 | 0.05 | 127 |
